# Paper PMC2362811, “In vivo efficacy of XR9051, a potent modulator of P-glycoprotein mediated multidrug resistance” (British Journal of Cancer, 1999)
# Like-named read-outs stand apart in the source and are kept apart here.
# Assays:
# [1] = system: P388/P-sensitive murine leukaemia; experiment: In vivo efficacy, P388/P sensitive murine leukaemia model (survival); set-up: species or system mouse; conditions: for lifespan of tumour-bearing animals vs vehicle alone: vincristine 0.1 mg kg-1 i.p. days 1-5 or doxorubicin 2 mg kg-1 i.p. days 1, 4 and 7, P < 0.005
# [2] = system: P388/DX Johnson murine leukaemia; conditions: for survival, cytotoxic drug in the absence of XR9051: P388/DX Johnson-resistant leukaemia-bearing mice, cytotoxic drug alone; for survival of resistant leukaemia-bearing mice, combination vs cytotoxic drug alone: days 1-5, P < 0.01
# [3] = Pharmacokinetics of XR9051 after single i.v. dose in Balb/c mice (plasma, liver, heart, brain; HPLC); type: in vivo, mouse; conditions: for half-life: two-compartment model
# in vivo = type: in vivo; set-up: maximum concentration in tumour tissue / maximum concentration in tumour tissue (molar) / concentrations in H69/LX4 MDR tumours over a 25 h period: unit not given here
# [4] = Plasma levels of XR9051 after single oral dose in Balb/c mice; type: in vivo; conditions: mouse
# [5] = system: MC26 murine colon carcinoma; type: in vivo
# MC26 cells = experiment: In vitro sensitization of MC26 cells to doxorubicin; type: cell-based, mouse; conditions: 500 nM XR9051, in vitro (unpublished data)
# [6] = system: 2780AD ovarian carcinoma xenografts; type: in vivo
# [7] = system: CH1/DOXr ovarian carcinoma xenografts; type: in vivo; conditions: for tumour growth rate compared with either drug alone: P < 0.01
# [8] = system: H69/LX small cell lung carcinoma xenografts; type: in vivo
# [9] = system: murine and human P-gp-expressing cell lines; set-up: method as in Dale et al, 1998; conditions: co-exposure, several murine and human P-gp-expressing cell lines; ref Dale et al, 1998; cited from earlier work
# P388/DX Johnson cells = conditions: the cell line used in our studies
# [10] = system: P388 cells transfected with the human MDR1 gene; conditions: ref Yang et al, 1994; cited from earlier work
# [11] = single i.v. 20 mg kg-1, H69/LX4 SCLC xenograft-bearing athymic mice
compound,measurement,setting,value
"COc1cccc2c1C(=O)c1c(O)c3c(c(O)c1C2=O)C[C@@](O)(C(=O)CO)C[C@@H]3O[C@H]1C[C@H](N)[C@H](O)[C@H](C)O1 [doxorubicin, reference compound]",lifespan of tumour-bearing animals vs vehicle alone,[1],increased the lifespan
same,"survival, cytotoxic drug in the absence of XR9051",[2],little or no effect on survival
"COc1cc2c(cc1OC)CN(CCc1ccc(NC(=O)c3cccc(/C=c4\[nH]c(=O)/c(=C/c5ccccc5)n(C)c4=O)c3)cc1)CC2 [XR9051, N-(4-(2-(6,7-dimethoxy-1,2,3,4-tetrahydro-2-isoquinolyl)ethyl)phenyl)-3-((3Z,6Z)-6-benzylidene-1-methyl-2,5-dioxo-3-piperazinylidene)methylbenzamide]",linearity of intravenous pharmacokinetic parameters,"[3]; i.v., between 20 and 100 mg kg-1 doses (data not shown)",linear
same,Vd,"[3]; mouse, in vivo, iv, single i.v. 20 mg kg-1, Balb/c mice, read-out: steady-state volume of distribution",9.6 L/kg
same,Kp,"[3]; mouse, iv, single i.v. 20 mg kg-1, Balb/c mice, brain, read-out: ratio between AUC for tissue:plasma, brain",0.3
same,Kp,"[3]; mouse, iv, single i.v. 20 mg kg-1, Balb/c mice, heart, read-out: ratio between AUC for tissue:plasma, heart",16.9
same,Kp,"[3]; mouse, iv, single i.v. 20 mg kg-1, Balb/c mice, liver, read-out: ratio between AUC for tissue:plasma, liver",79.6
same,AUC,"[3]; mouse, iv, single i.v. 20 mg kg-1, Balb/c mice, plasma, read-out: AUC from time 0- for plasma",11900 ng·h/mL
same,half-life,"[3]; mouse, iv, single i.v. 20 mg kg-1, Balb/c mice, brain, read-out: apparent elimination half-life in brain (converted)",1.15 h
same,half-life,"[3]; mouse, iv, single i.v. 20 mg kg-1, Balb/c mice, heart, read-out: apparent elimination half-life in heart (converted)",2 h
same,half-life,"[3]; mouse, iv, single i.v. 20 mg kg-1, Balb/c mice, liver, read-out: apparent elimination half-life in liver (converted)",4.93 h
same,half-life,"[3]; mouse, iv, single i.v. 20 mg kg-1, Balb/c mice, plasma, read-out: apparent elimination half-life in plasma (converted)",3.96 h
same,AUC,"in vivo; athymic, mouse, tumour (H69/LX4 SCLC xenograft), iv, single i.v. 20 mg kg-1, H69/LX4 tumour, read-out: AUC0- in tumour tissue",57100 ng·h/mL
same,half-life,"in vivo; athymic, mouse, tumour (H69/LX4 SCLC xenograft), iv, single i.v. 20 mg kg-1, H69/LX4 tumour, read-out: apparent elimination half-life in tumour tissue (converted)",8.79 h
same,Tmax,"in vivo; athymic, mouse, tumour (H69/LX4 SCLC xenograft), iv, single i.v. 20 mg kg-1, H69/LX4 tumour, read-out: time of maximum concentration in tumour tissue",1.5 h
same,concentrations in H69/LX4 MDR tumours over a 25 h period,"in vivo; single i.v. 20 mg kg-1, 25 h period",0.6-9.4
same,maximum concentration in tumour tissue,in vivo; [11],6.94
same,maximum concentration in tumour tissue (molar),in vivo; [11],9.4
same,bioavailability,"[4]; Balb/c, oral, p.o. 50 mg kg-1 vs i.v., mice",~46%
same,Tmax,"[4]; po, p.o. 50 mg kg-1, Balb/c mice",~3.4 h
same,AUC(0-t),"[4]; po, p.o. 50 mg kg-1, Balb/c mice, read-out: AUC0-24 h",13500 ng·h/mL
same,Cmax,"[4]; po, p.o. 50 mg kg-1, Balb/c mice, read-out: Cmax in plasma",1300 ng/mL
same,Cmax,"[4]; po, p.o. 50 mg kg-1, Balb/c mice, read-out: Cmax in plasma (molar)",1800 nM
same,survival time,[1]; P388/P-sensitive cells implanted i.p.,12 days
same,"lifespan of sensitive tumour-bearing animals, co-administration with cytotoxic drug",[1]; XR9051 20 or 40 mg kg-1 i.v. with vincristine or doxorubicin,did not further increase the lifespan
same,"tumour growth inhibition, XR9051 alone","[5]; XR9051 alone, pilot experiments",no significant inhibitory activity
same,tumour growth on day 14 compared to cytotoxic drug alone,[5]; XR9051 i.p. 20 mg kg-1 at 0 and 4 h with doxorubicin 5 mg kg i.v. at 1 h,significant (P < 0.001) inhibition of tumour growth
same,body weight gain between the various groups,[5]; XR9051 i.p. or p.o. with doxorubicin,no differences in body weight gain
same,tumour growth on day 14 compared to cytotoxic drug alone,[5]; XR9051 p.o. 40 mg kg-1 at 0 and 4 h with doxorubicin 5 mg kg i.v. at 1 h,significant (P < 0.001) inhibition of tumour growth
same,enhancement of sensitivity of MC26 cells to doxorubicin,MC26 cells,three-fold
same,extent of reversal of resistance,"[6]; XR9051 40 mg kg-1 with epirubicin, compared with sensitive 2780 tumours (Plumb et al, 1994)",full reversal of resistance
same,tumour growth rate compared with either drug alone,"[6]; XR9051 i.p. 20-40 mg kg-1 2 h before and after epirubicin 10 mg kg-1 i.v., P < 0.01, dose related",significantly reduced growth rate
same,tumour growth rate compared with either drug alone,"[7]; XR9051 10 mg kg-1 i.v. with Paclitaxel 20 mg kg-1 i.p., days 0, 2 and 4",significantly reduced tumour growth rate
same,tumour growth rate compared with either drug alone,"[7]; XR9051 20 mg kg-1 i.v. with etoposide 30 mg kg-1 i.p., days 0, 5 and 11",significantly reduced tumour growth rate
same,tolerability of combination schedules as judged by changes in body weights,[7]; XR9051 i.v. with Paclitaxel or etoposide (data not shown),well-tolerated
same,potentiation of anti-tumour activity of doxorubicin,"[8]; XR9051 40 mg kg-1 i.p. or p.o. with doxorubicin (2 mg kg-1), P < 0.01",significantly potentiated the anti-tumour activity
same,potentiation of anti-tumour activity of vincristine,"[8]; XR9051 40 mg kg-1 i.p. or p.o. with vincristine 0.5 mg kg-1 i.p., P < 0.01",significantly potentiated the anti-tumour activity
same,tolerability of combination schedules,[8]; XR9051 with vincristine or doxorubicin,well-tolerated
same,"survival, modulator alone","[2]; XR9051 alone by any route, mice bearing sensitive or resistant tumours",no effect on survival
same,lifespan of resistant tumour-bearing animals,"[2]; XR9051 i.p. 5, 10 and 20 mg kg-1 with vincristine 0.1 mg kg-1 i.p., dose-dependent (data not shown)",increase in lifespan
same,"survival of resistant leukaemia-bearing mice, combination vs cytotoxic drug alone","[2]; XR9051 i.v. 10, 20 or 40 mg kg-1 1 h before vincristine 0.1 mg kg-1 i.p.",significantly increased survival
same,"survival of resistant leukaemia-bearing mice, combination vs cytotoxic drug alone","[2]; XR9051 p.o. 60, 80 or 120 mg kg-1 1 h before vincristine 0.1 mg kg-1 i.p.",significantly increased survival
same,toxicity of combination therapy as assessed by body weight loss,[2]; XR9051 with vincristine or doxorubicin (data not shown),no significant increase in toxicity
same,oral potency relative to i.v. administration,[2]; xenograft and murine tumour models,two- to three-fold less
same,concentration that fully reverses resistance to a range of cytotoxic drugs in vitro,[9],300 to 500 nM
"CC[C@]1(O)C[C@H]2CN(CCc3c([nH]c4ccccc34)[C@@](C(=O)OC)(c3cc4c(cc3OC)N(C=O)[C@H]3[C@@](O)(C(=O)OC)[C@H](OC(C)=O)[C@]5(CC)C=CCN6CC[C@]43[C@@H]65)C2)C1 [vincristine, reference compound]",lifespan of tumour-bearing animals vs vehicle alone,[1],increased the lifespan
same,"survival, cytotoxic drug in the absence of XR9051",[2],little or no effect on survival
same,resistance factor of cell line to vincristine,P388/DX Johnson cells,70 fold
same,resistance factor of cell line to vincristine,[10],22 fold
